Assay results as given in US11491139B2, “Inhibition of YAP for breaking tumor immune tolerance” (The Johns Hopkins University, priority 2015, dated 2022).

Columns and labels:
B16-melanoma cells = experiment: B16-melanoma growth experiments in mice (tumor volume); type: in vivo; conditions: C57BL/6 mice challenged with B16-melanoma, Verteporfin 2 mg/mouse i.p. every two days, anti-PD-1 (G4) 100 μg/mouse i.p. twice a week, GVAX 1×10^6 irradiated cells s.c., FIG. 4
Protocol: C57BL/6 mice were challenged with B16-melanoma cells and tumor progression was monitored as in FIG. 3. Cohorts of mice were injected treated with either VP, GVAX, anti-PD1 antibody, VP and anti-PD-1, or VP and GVAX beginning one day post-tumor injection. Control mice were left untreated (n=5/group). Shown are the mean tumor volumes for the groups +/−SD.
B16-melanoma cells were cultured in vitro in DMEM plus 10% heat inactivated Fetal Bovine Serum and were detached by trypsinization and washed prior to s.c. injection into the footpads of C57BL/6 mice (NCI). 1-5×10^4 B16 melanoma cells were injected each mouse in the footpad. In some cases, 10^5 B16 cells were injected. Once tumors were palpable (7-10 days), […] of 1×10^6 lethally irradiated (150Gy) B16 GM-vaccine cells were injected subcutaneously into the contralateral limb. For all these experiments, 5-10 mice were used per group. A hybridoma cell line expressing a blocking anti-PD-1 antibody (clone G4) was obtained from Dr. Charles Drake (JHH). […] Tumor volume was determined by digital caliper measurements throughout the experiment. The relative tumor volume was calculated by the formula: Length (mm)×Width (mm)×Height (mm)×0.5326×0.01. […] Cytokines and Foxp3 were measured by intracellular flow cytometry.

[1] = statement with reference [17]; may limit bioavailability; cited from earlier work

For Verteporfin, the “tumor growth / tumor size (tumor volume)” value (B16-melanoma cells) is given as “modest reduction in tumor size”, the “tumor growth / tumor size (tumor volume)” value (B16-melanoma cells; listed as VP) is given as “did not alter the course of tumor growth” and the solubility [1] is given as “prone to solubility issues”.
